Patent US6221901A, “Magnesium (-)hydroxycitrate, method of preparation, applications, and compositions in particular pharmaceutical containing same” (priority 1996, dated 2001)
Where two headings read alike, the source gives them in different places.

Legend:
[1] = test system: human epithelial cells and rat arterial smooth muscle cells; test: Mortality of human epithelial cells and of rat arterial smooth muscle cells (antioxidant effect, model of oxygen toxicity); assay type: cell-based; settings: for protective effect on cell mortality: result in words; for Reduction in percentages: cell mortality: in culture medium: (-)hydroxycitrate 0.1 mM, silicon 0.036 mM, magnesium 0.1 mM
Procedure: (§1) 1) Study of the Mortality of Human Epithelial Cells and of Rat Arterial Smooth Muscle Cells.
The antioxidant effects of (-)hydroxycitrate and of different minerals were tested according to the protocol described by Michiels et al: "A new experimental model to study oxygen toxicity", Arch. int. Physiol. Biochem. 94 (5), S13-S18, 1986, using rat hepatocytes, as well as human epithelial cells and rat arterial smooth muscle cells.
(§2) The various products were respectively tested at the following concentrations: […]

[2] = test system: rat arterial smooth muscle cells; test: Accumulation of intracellular lipids in arterial smooth muscle cells; assay type: cell-based; settings: for Reduction in percentages: accumulation of lipids: in culture medium: (-)hydroxycitrate 0.1 mM, silicon 0.036 mM, magnesium 0.1 mM
Procedure: as §1
(§3) The inhibitory effects of these compounds on the proliferation of arterial smooth muscle and on the accumulation of intracellular lipids was also tested using the method described by Shrivastava et al. in Meth. Find. Exp. Clin. Pharmacol. 15 (6), pages 345-350, 1993.
as §2

[3] = test system: rat arterial smooth muscle cells; test: Proliferation of arterial smooth muscle cells; assay type: cell-based; settings: for Reduction in percentages: proliferation of cells: in culture medium: (-)hydroxycitrate 0.1 mM, silicon 0.036 mM, magnesium 0.1 mM
Procedure: as §1, §3, §2

[4] = literature, Majeed et al. 1994; in words; cited from earlier work
[5] = test system: hypercholesterolemic rabbits; test: Effect in vivo on the cholesterol level in hypercholesterolemic rabbits; parameters: species or system rabbit; settings: 750 mg/kg oral
Procedure: (§4) 2) Study of the Effect in vivo on the Cholesterol Level and on Lipidic Deposits in Hypercholesterolemic Rabbits.
(§5) Two batches of 20 male rabbits (Elevage scientifique des Dombes: 2.5-3 kg) received a cholesterol-rich food (1%) for a period of 8 weeks. The first batch were not treated and therefore served as a control while the second batch received 750 mg/kg of magnesium (-)hydroxycitrate by oral route.

[6] = test system: wall of the aorta, hypercholesterolemic rabbits; test: Lipidic deposits on the wall of the aorta in hypercholesterolemic rabbits; assay type: in vivo, rabbit; settings: 750 mg/kg oral
Procedure: as §4, §5

[7] = test system: hypercholesterolemic rabbit; assay type: in vivo
Procedure: 3) Study of Antiatherosclerotic Effects in the Hypercholesterolemic Rabbit.
Two batches of 15 male rabbits (Elevage scientifique des Dombes: 2.5-3 kg) received a cholesterol-rich food: 0.2% for the period D+8 to D+37, then 1% until D+69, when the animals are sacrificed.
The first batch was not treated and therefore served as a control while the second batch received 500 mg/kg of magnesium (-)hydroxycitrate by oral route.

hypertensive rat = test: Anti-hypertensive activity in the hypertensive rat; assay type: in vivo; settings: 500 mg/kg/day oral, one week, vs untreated controls
Procedure: 4) Study of Anti-hypertensive Activity in the Hypertensive Rat
Magnesium (-)hydroxycitrate was tested on 12 hypertensive rats. A batch of 12 other hypertensive rats was used as a control batch. An average reduction in arterial pressure of 17%±3% with respect to the controls (untreated) was noted after one week of treatment at a rate of 500 mg per kilogram per day by oral route.

in vivo = settings: rat
From the text: The toxicity of magnesium (-)hydroxycitrate is greater than 2 g/kg by intraperitoneal route or than 7 g/kg per os in the rat. That of metals, in particular in the form of salts or mineral oxides (frequently administered as trace elements) is well known.

[8] = result in words, with respect to (-)hydroxycitrate or magnesium
[9] = 500 mg/kg/day oral, 62 days, vs controls

## O=C(O)CC(O)(C(=O)O)C(O)C(=O)O (single isomer, unassigned; (-)) [(-)hydroxycitrate, (-)hydroxycitric acid]
[1]
  protective effect on cell mortality: no protective effect on cell mortality
[2]
  Reduction in percentages: accumulation of lipids: 16 (±3) %
[3]
  Reduction in percentages: proliferation of cells: 6 (±4) %
[4]
  body weight: reduces body weight

## O=C(O)C[C@@](O)(C(=O)O)[C@H](O)C(=O)O [Magnesium (-)hydroxycitrate, magnesium (-)hydroxycitrate]
[1]
  protective effect on cell mortality: more protective effect
[2]
  Reduction in percentages: accumulation of lipids: 81 (±13) %
[2]; [8]
  effect on accumulation of lipids: very significant increase in the effects
[3]
  Reduction in percentages: proliferation of cells: 48 (±8) %
[3]; [8]
  effect on cell proliferation: very significant increase in the effects
[5]; 4 weeks, vs controls
  HDL's, variation: +8.5%
  LDL's, variation: -22.4%
  Total cholesterol, variation: -19.5%
  Total cholesterol/HDL ratio, variation: -28.2%
[5]; after 4 weeks
  HDL's, in words: increase in HDL's
  LDL's, in words: reduction in LDL's
[5]; after 4 weeks of treatment
  HDL's: 0.246 g/L
  LDL's: 4.00 g/L
  Total cholesterol: 4.47 g/L
  Total cholesterol/HDL ratio: 19.22
[6]; 4 weeks
  number of lipidic deposits, aortic arch, week 4: 3.5
  number of lipidic deposits, thoracic arch, week 4: 0.0
[6]; 8 weeks
  number of lipidic deposits, aortic arch, week 8: 1.5
  number of lipidic deposits, thoracic arch, week 8: 0.0
[6]; after 4 weeks and after 8 weeks
  number of lipidic deposits, in words: reduction in the number of lipidic deposits
[6]; sum of aortic and thoracic arch, weeks 4 and 8
  number of lipidic deposits, total: 5.0
[6]; vs controls
  lipidic deposits, total, Variation %: -80.4%
[7]; 500 mg/kg/day oral, 62 days
  Reduction in weight of spleen: -20.3%
  Reduction in weight of surrenal glands: -21.6%
[7]; 500 mg/kg/day oral, 62 days, vs control batch
  Reduction in lipidic deposits on the aortic vascular wall: 46.3%
[7]; [9]
  Reduction in the total cholesterol level: -13.75%
  Reduction in the total cholesterol/HDL ratio: -25.72%
  increase in HDL levels: +12.5%
[7]; 500 mg/kg/day oral, 62 days, vs controls, given without sign
  Reduction in LDL's: 16.36%
[7]; 500 mg/kg/day oral, 62 days, in words
  weight of heart, liver: Reduction in weight of heart, liver
[7]; non-cytotoxic doses, in words
  overall effect on the hypercholesterolemic rabbit: hypocholesterolemia and anti-atherosclerotic effect
Hypertensive rat
  average reduction in arterial pressure: 17%±3%
In vivo; ip, intraperitoneal, read-out: toxicity, intraperitoneal route
  LD50: > 2000 mg/kg
In vivo; po, per os, read-out: toxicity, per os
  LD50: > 7000 mg/kg

## Magnesium
[1]
  Reduction in percentages: cell mortality: 6 (±3) %
  protective effect on cell mortality: reduces this mortality very slightly
[2]
  Reduction in percentages: accumulation of lipids: 20 (±9) %
[3]
  Reduction in percentages: proliferation of cells: 2 (±2) %

## Silicon
[1]
  Reduction in percentages: cell mortality: 28 (±7) %
[2]
  Reduction in percentages: accumulation of lipids: 32 (±5) %
[3]
  Reduction in percentages: proliferation of cells: 28 (±6) %
